Literature values in patent publication US20250295646A1, “METHODS OF USE OF T-TYPE CALCIUM CHANNEL MODULATORS” (Praxis Precision Medicines, Inc., priority 2022, published 2025).

Conditions: WO 2020/072773, cited from earlier work

Question: Which results are given for `CC(C)c1ccc(CC(=O)N[C@H](C)c2ccc(OCC(F)(F)F)cn2)cc1` [CX-8998]?
Answer: discontinuation due to intolerability of adverse events (28-day essential tremor study): 17%; discontinuation rate (28-day essential tremor study): 23%; tolerability of doses of 20 and 24 mg: less well tolerated; single doses generally well tolerated (non-titrated): up to 16 mg
